# Test results from PMC4288171, “Meclofenamic acid selectively inhibits FTO demethylation of m^6A over ALKBH5” (Nucleic Acids Research, 2014).
# Target: T1, FTO (Homo sapiens, UniProt Q9C0B1)
# T1 construct: FTOΔN31 (His-tag human FTO with N-terminal 31 residues truncated)
# Assay: crystal structure at […] Å; DSF shift; FP displacement (IC50 […]); IC50 from HPLC demethylation assay on ssDNA
# Assay type: biochemical
# T1 sequence (Q9C0B1 32-505): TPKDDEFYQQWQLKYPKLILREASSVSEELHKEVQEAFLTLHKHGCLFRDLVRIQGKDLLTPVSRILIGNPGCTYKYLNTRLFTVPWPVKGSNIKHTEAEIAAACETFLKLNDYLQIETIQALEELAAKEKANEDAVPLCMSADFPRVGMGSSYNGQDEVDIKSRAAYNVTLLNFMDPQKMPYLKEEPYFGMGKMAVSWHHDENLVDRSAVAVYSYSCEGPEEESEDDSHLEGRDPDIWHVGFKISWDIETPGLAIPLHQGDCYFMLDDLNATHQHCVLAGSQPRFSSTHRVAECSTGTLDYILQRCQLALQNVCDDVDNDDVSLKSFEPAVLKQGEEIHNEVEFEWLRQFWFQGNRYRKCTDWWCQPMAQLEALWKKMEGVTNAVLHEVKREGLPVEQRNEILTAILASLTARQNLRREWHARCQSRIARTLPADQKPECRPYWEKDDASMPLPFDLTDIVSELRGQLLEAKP
compound,measurement,value
"Cc1ccc(Cl)c(Nc2ccccc2C(=O)O)c1Cl [MA, meclofenamic acid]",IC50,7 µM
